Laboratory results as given in ChEMBL document CHEMBL5506015, “Discovery of a Meisoindigo-Derived PROTAC as the ATM Degrader: Revolutionizing Colorectal Cancer Therapy via Synthetic Lethality with ATR Inhibitors” (J Med Chem, 2024).
The source made the active and inactive calls. No cut-off for these calls is given here.

Assays:
[1] = Downregulation of ATM level in human HCT-116 cells transfected with NC shRNA by immunoblot analysis; assay type: functional
[2] = Downregulation of ATM level in human SW620 cells transfected with NC shRNA by immunoblot analysis; assay type: functional, SW-620
SW-620 [3] = test: Antitumor activity against human SW620 cells xenografted in Balb/c nude mouse model assessed as decrease in pro caspase 3 level at 15 mg/kg/day measured after 14 days by Western blot analysis; assay type: functional, organism-based; conditions: time 14.0 day
SW13 = test: Cytotoxicity against human SW13 cells assessed as reduction in cell viability incubated for 48 hrs by MTT assay; conditions: SW13, 48 h
RKO = test: Cytotoxicity against human RKO cells assessed as reduction in cell viability incubated for 48 hrs by MTT assay
SW-620 [4] = test: Antitumor activity against human SW620 cells xenografted in Balb/c nude mouse model assessed as increase in gamma-H2AX level at 15 mg/kg/day measured after 14 days by Western blot analysis; assay type: functional, organism-based; conditions: time 14.0 day
SW-620 [5] = test: Induction of DNA damage in human SW620 cells assessed as accumulation of phosphorylated-chk2 (Thr68) measured after 12 hrs by immunoblot analysis; assay type: functional, cell-based; conditions: dose 2.5-10 µM
SW-620 [6] = test: Antitumor activity against human SW620 cells xenografted in Balb/c nude mouse model assessed as reduction in tumor load at 15 mg/kg/day administered for 14 days by vernier caliper based analysis; assay type: functional, organism-based; conditions: time 14.0 day
SW-620 [7] = test: Downregulation of KDM4B level in human SW620 cells measured after 12 hrs by immunoblot analysis; assay type: functional, cell-based; conditions: dose 1.25-10 µM
SW480 [8] = test: Induction of apoptosis in human SW480 cells measured after 12 hrs by Annexin V-FITC/propidium iodide staining-based flow cytometric analysis; assay type: functional, cell-based; conditions: dose 5-10 µM
SW-620 [9] = test: Downregulation of PROX1 level in human SW620 cells measured after 12 hrs by immunoblot analysis; assay type: functional, cell-based; conditions: dose 1.25-10 µM
SW-620 [10] = test: Antitumor activity against human SW620 cells xenografted in Balb/c nude mouse model assessed as increase in gamma-H2AX at 15 mg/kg/day measured after 14 days by Western blot analysis; assay type: functional, organism-based; conditions: time 14.0 day
[11] = Downregulation of ATM level in human SW480 cells transfected with NC shRNA by immunoblot analysis; assay type: functional
K562 [12] = test: Induction of DNA damage in human K562 cells assessed as accumulation of phosphorylated-chk2 (Thr68) at 20 uM by immunoblot analysis; assay type: functional, cell-based; conditions: time <= 12.0 hrs, TDE = time-dependent effect
LoVo = test: Cytotoxicity against human LoVo cells assessed as reduction in cell viability incubated for 48 hrs by MTT assay
A2780 = test: Cytotoxicity against human A2780 cells assessed as reduction in cell viability incubated for 48 hrs by MTT assay; conditions: A2780, 48 h
[13] = Toxicity in Balb/c nude mouse assessed as effect on body weight loss at 15 mg/kg/day administered for 14 days […]; assay type: organism-based; conditions: in vivo, 336 h, time 14 day
SW-620 [14] = test: Induction of DNA damage in human SW620 cells assessed as accumulation of phosphorylated-chk2 (Thr68) at 10 uM by immunoblot analysis; assay type: functional, cell-based; conditions: time <= 24.0 hrs, TDE = time-dependent effect
K562 [15] = test: Induction of DNA damage in human K562 cells assessed as accumulation of phosphorylated-chk2 (Thr68) measured after 8 hrs by immunoblot analysis; assay type: functional, cell-based
SW480 [16] = test: Downregulation of BCL2 level in human SW480 cells at 5 to 20 uM measured after 8 hrs by immunoblot analysis; assay type: functional, cell-based; conditions: dose 5-20 µM
SW480 [17] = test: Cytotoxicity against human SW480 cells assessed as reduction in cell viability incubated for 48 hrs by MTT assay; conditions: SW480, 48 h
[18] = Downregulation of ATM level in human HCT-116 cells transfected with ATM shRNA by immunoblot analysis; assay type: functional
SW-620 [19] = test: Antitumor activity against human SW620 cells xenografted in Balb/c nude mouse model assessed as decrease in cleaved caspase 3 level at 15 mg/kg/day measured after 14 days by Western blot analysis; assay type: functional, organism-based; conditions: time 14.0 day
K562 [20] = test: Downregulation of ATM level in human K562 cells at 20 uM by immunoblot analysis; assay type: functional, cell-based; conditions: time <= 24.0 hrs, TDE = time-dependent effect
SW480 [21] = test: Cytotoxicity against human SW480 cells transfected with ATM shRNA assessed as reduction in cell viability measured after 48 hrs by MTT assay; conditions: SW480, 48 h
SW-620 [22] = test: Upregulation of cleaved caspase 3 level in human SW620 cells at 1.25 to 10 uM measured after 12 hrs by immunoblot analysis; assay type: functional, cell-based; conditions: dose 1.25-10 µM
SW-620 [23] = test: Cytotoxicity against human SW620 cells assessed as reduction in cell viability incubated for 48 hrs by MTT assay; conditions: SW-620, 48 h
K562 [24] = test: Cytotoxicity against human K562 cells assessed as reduction in cell viability incubated for 48 hrs by MTT assay; conditions: K562, 48 h
SW-620 [25] = test: Cytotoxicity against human SW620 cells transfected with NC shRNA assessed as reduction in cell viability measured after 48 hrs by MTT assay; conditions: SW-620, 48 h
SW480 [26] = test: Downregulation of ATM level in human SW480 cells measured after 12 hrs by immunoblot analysis; assay type: functional, cell-based; conditions: dose 1.25-10 µM
K562 [27] = test: Downregulation of ATM level in human K562 cells measured after 8 hrs by immunoblot analysis; assay type: functional, cell-based; conditions: dose 5-20 µM

Cc1ncsc1-c1ccc(CNC(=O)[C@@H]2C[C@@H](O)CN2C(=O)[C@@H](NC(=O)CCCCCn2cc(CCCN3C(=O)/C(=C4/C(=O)Nc5ccccc54)c4ccccc43)nn2)C(C)(C)C)cc1
Activity [1]: 100%
Activity [2]: 100%
Activity (SW-620 [3]): Active
IC50 (SW13): 3.31 µM
IC50 (RKO): 3.95 µM
Activity (SW-620 [4]): Active
Activity (SW-620 [5]): Dose-Dependent Effect
Activity (SW-620 [6]): Active
Activity (SW-620 [7]): Dose-Dependent Effect
Activity (SW480 [8]): Dose-Dependent Effect
Activity (SW-620 [9]): Dose-Dependent Effect
Activity (SW-620 [10]): Active
Activity [11]: 100%
Activity (K562 [12]): Tde
IC50 (LoVo): 6.73 µM
IC50 (A2780): 3.96 µM
Activity [13]: Non-Toxic
Activity (SW-620 [14]): Tde
Activity (K562 [15]): Dose-Dependent Effect
Activity (SW480 [16]): Active
IC50 (SW480 [17]): 2590 nM
Activity [18]: 15%
Activity (SW-620 [19]): Active
Activity (K562 [20]): Tde
IC50 (SW480 [21]): 12.1 µM
Activity (SW-620 [22]): Active
IC50 (SW-620 [23]): 3.7 µM
IC50 (K562 [24]): 4.06 µM
IC50 (SW-620 [25]): 3.7 µM
Activity (SW480 [26]): Dose-Dependent Effect
Activity (K562 [27]): Dose-Dependent Effect
